According to patent publication US8858939B2, “Ectopic pregnancy treatment” (Monash University, priority 2009, dated 2014):
Entries after “also recorded” stand apart in the source; their conditions may differ. Blank lines part the entries; values can stand above or below the compound they belong to.

How the values were obtained:
[1] = tested on: p38 MAPK; assay: Bio-Plex phosphoprotein assay in JEG3 cells, p38 MAPK; format: cell-based, human; conditions: FIG. 12B
Procedure: (§1) Cell lysates were analyzed for levels of phosphorylated Akt, p-38 MAPK, IκB-α or Erk1/2 using the Bio-Plex Phosphoprotein Assays (Bio-Rad Laboratories).
(§2) To further explore how these drugs may be acting together to enhance placental cell death, the inventors investigated the phosphorylation status of Akt, p38 mitogen-activated protein kinase (p38-MAPK), extracellular signal-regulated kinase 1/2 (ERK1/2) and IKappaB Kinase (IKB) in response to various treatments in JEG3 cells. These are key signaling molecules representing major downstream pathways of EGFR (Dutta PR & Maity A (2007) Cancer Lett 254:165-177).

[2] = tested on: JEG-3 cells; assay: CellTiter-Blue cell viability assay, JEG-3 cells; format: cell-based, human; conditions: for JEG3 cell death, single agent: CellTitre Blue, increasing doses, 48 and 72 hours, FIGS. 7A, 8A
Procedure: (§3) JEG-3 and BeWo cells were cultured in DMEM/F-12 medium containing L-glutamine (Invitrogen) supplemented with 10% fetal calf serum (ICP Biologicals). For treatments with methotrexate (Sigma) or Gefitinib (LC Laboratories) media was replaced with media containing 1% FCS.
(§4) Viability was analysed using the CellTiter-Blue® Cell Viability Assay (Promega).
(§5) Two different placenta-derived trophoblast-like human choriocarcinoma cell lines as well as isolated human first trimester extravillous trophoblast cells were incubated with methotrexate±gefitinib at various concentrations for 72 hours. […] The viability of the JEG-3, BeWo and primary first trimester extravillous trophoblast cells after treatment with methotrexate and gefitinib was assessed by the CellTiter-Blue® Cell Viability Assay.
(§6) JEG-3, BeWo and primary first trimester trophoblast cells were seeded at 5000 cells per well in 96-well plates in DMEM/F-12 culture medium containing 1% foetal bovine serum and 1% penicillin/streptomycin and incubated at 37° C. in a humidified atmosphere of 5% CO2. Approximately 40 hours after seeding, drugs were added to the cells in DMEM/F-12 containing 1% foetal bovine serum. A dose of 100 μM of methotrexate (JEG-3 and primary first trimester trophoblast cells) and 200 μM of methotrexate (syncytialised BeWo cells) was used because this dose decreased cell viability by approximately 50%, as observed in initial dose-response experiments. Cells treated with vehicle (DMSO) served as control cells. In all figures, data are expressed as means±SEM. One-way ANOVA and Student's t test were used to compare means between experimental groups. Statistical significance was assumed at P values<0.05. All experiments have been repeated at least twice.

[3] = tested on: Akt; assay: Bio-Plex phosphoprotein assay in JEG3 cells, Akt; format: cell-based, human; conditions: JEG3 cells treated with EGF, FIG. 12A
Procedure: as §1, §2

[4] = tested on: JEG3 cells; assay: xCELLigence real-time analysis of JEG3 cell growth; format: cell-based, human; conditions: for decrease in JEG3 growth (xCELLigence): FIG. 6B
Procedure: The Real-Time Cell Analyzer (RTCA) SP instrument (Roche Diagnostics GmbH) was placed in a humidified incubator maintained at 37° C. with 5% CO2. Cells were seeded at 625-40,000 cells per well in 96-well plates (E-plate 96, Roche Diagnostics GmbH) in medium containing 1% or 10% serum. Cells were initially monitored once every 2 min for 1 h and then once every hour. After addition of treatment, cells were monitored once every 10 min for 3 h and thereafter once every hour.
[…]. By taking continuous measurements, this assay also tracks cell growth longitudinally. […].

[5] = tested on: ERK1/2; assay: Bio-Plex phosphoprotein assay in JEG3 cells, ERK1/2; format: cell-based, human; conditions: FIG. 12C
Procedure: as §1, §2

[6] = tested on: syncytialised BeWo cells; assay: CellTiter-Blue cell viability assay, syncytialised (forskolin-treated) BeWo cells; format: cell-based, human; conditions: for BeWo cell death, single agent: CellTitre Blue, increasing doses, FIGS. 7B, 8B
Procedure: as §3, §4, §5, §6
The effect of combined addition of methotrexate and gefitinib on cell viability of syncytialised BeWo cells is shown in FIG. 3. […] Methotrexate and gefitinib were administered to syncytialised (forskolin-treated) BeWo cells and cell viability determined after 72 hours by CellTiter-Blue assay.

[7] = tested on: subcutaneous JEG3 xenografts; assay: Subcutaneous JEG-3 xenograft model in SCID mice; format: in vivo; conditions: i.p.; for xenograft tumour volume at the doses chosen for combination: MTX 0.04 mg/dose, gefitinib 0.5 mg/dose; for xenograft tumour volume, single agent at different doses: days 7 and 13 (FIG. 11: days 7, 10 and 13), FIGS. 10A, 10B, 11
Procedure: 5- to 6-week-old female SCID mice (C.B-17-Igh-1^b-Prkdc^scid; Animal Resources Centre, Perth, Australia) were inoculated with JEG-3 cells (10^6 in 100 μL PBS) subcutaneously. Mice were treated starting at day 7 after JEG-3 injection with gefitinib (0.5-2 mg per dose in 50 μL DMSO), methotrexate (0.04-0.4 mg per dose in 100 μL buffer) or respective vehicle (DMSO/buffer) per intraperitoneal injection (i.p.). Xenograft volume in cubic millimeters was determined using the formula (length×width^2)/2, where length was the longest axis and width was the measurement at right angles to the length. The mice were sacrificed after 19 days, at which time we excised the xenografts, weighed and measured them, and collected blood by cardiac puncture. hCG was quantified in mouse serum using the Elegance hCG ELISA assay (Bioclone). The animal study was reviewed and approved by the Monash University Animal Welfare Committee.
A subcutaneous JEG-3 xenograft model as established in SCID mice where 1×10^6 JEG-3 cells were injected into the flanks of mice.
Once palpable, xenograft growth was monitored by measuring tumour length and width every 3 days using digital callipers. Tumour volume in mm^3 was determined using the formula […], where length was the longest axis and width being the measurement at right angles to the length. Data are expressed as average tumour volume±SEM for each treatment group.
Mean tumour volume was monitored by digital calliper measurements every 3 days. Tumour volume was determined as described above.

[8] = tested on: IKB-α; assay: Bio-Plex phosphoprotein assay in JEG3 cells, IKB-α; format: cell-based, human; conditions: FIG. 12D
Procedure: as §1, §2

[9] = tested on: developing embryo; conditions: administered for 11 weeks to a person who conceived during a clinical trial; cited from earlier work
[10] = tested on: caspase-cleaved cytokeratin 18; assay: M30 antibody apoptosis assay (FACS) in JEG3 cells; format: cell-based, human; conditions: 72 hours, FIG. 13C
Procedure: Cell suspensions were fixed in ice-cold methanol overnight at −20° C., washed in PBS and stained with M30 CytoDeath mouse monoclonal antibody (Sapphire Biosciences), followed by ALEXA® 488-conjugated anti-mouse antibody (Invitrogen). Samples were analyzed on a BD FACS Canto II analyser (BD Biosciences).
Therefore, the inventors performed FACS sorting using the M30 antibody that detects caspase-cleaved cytokeratin 18, a marker of early apoptosis which persists in cells (Ueno T et al., (2005) Biomed Pharmacother 59 Suppl 2, S359-362). […]. The inventors conclude that combination treatment may increase apoptosis in placental cells.

[11] = target: T1, EGFR (Homo sapiens, UniProt P00533); assay: Western blot of EGF induced EGFR phosphorylation in JEG3 cells; format: cell-based; conditions: pre-incubation of JEG3 cells, FIG. 5
T1 construct: endogenous in cells; host or cells: JEG3 cells
T1 sequence (P00533 25-1210): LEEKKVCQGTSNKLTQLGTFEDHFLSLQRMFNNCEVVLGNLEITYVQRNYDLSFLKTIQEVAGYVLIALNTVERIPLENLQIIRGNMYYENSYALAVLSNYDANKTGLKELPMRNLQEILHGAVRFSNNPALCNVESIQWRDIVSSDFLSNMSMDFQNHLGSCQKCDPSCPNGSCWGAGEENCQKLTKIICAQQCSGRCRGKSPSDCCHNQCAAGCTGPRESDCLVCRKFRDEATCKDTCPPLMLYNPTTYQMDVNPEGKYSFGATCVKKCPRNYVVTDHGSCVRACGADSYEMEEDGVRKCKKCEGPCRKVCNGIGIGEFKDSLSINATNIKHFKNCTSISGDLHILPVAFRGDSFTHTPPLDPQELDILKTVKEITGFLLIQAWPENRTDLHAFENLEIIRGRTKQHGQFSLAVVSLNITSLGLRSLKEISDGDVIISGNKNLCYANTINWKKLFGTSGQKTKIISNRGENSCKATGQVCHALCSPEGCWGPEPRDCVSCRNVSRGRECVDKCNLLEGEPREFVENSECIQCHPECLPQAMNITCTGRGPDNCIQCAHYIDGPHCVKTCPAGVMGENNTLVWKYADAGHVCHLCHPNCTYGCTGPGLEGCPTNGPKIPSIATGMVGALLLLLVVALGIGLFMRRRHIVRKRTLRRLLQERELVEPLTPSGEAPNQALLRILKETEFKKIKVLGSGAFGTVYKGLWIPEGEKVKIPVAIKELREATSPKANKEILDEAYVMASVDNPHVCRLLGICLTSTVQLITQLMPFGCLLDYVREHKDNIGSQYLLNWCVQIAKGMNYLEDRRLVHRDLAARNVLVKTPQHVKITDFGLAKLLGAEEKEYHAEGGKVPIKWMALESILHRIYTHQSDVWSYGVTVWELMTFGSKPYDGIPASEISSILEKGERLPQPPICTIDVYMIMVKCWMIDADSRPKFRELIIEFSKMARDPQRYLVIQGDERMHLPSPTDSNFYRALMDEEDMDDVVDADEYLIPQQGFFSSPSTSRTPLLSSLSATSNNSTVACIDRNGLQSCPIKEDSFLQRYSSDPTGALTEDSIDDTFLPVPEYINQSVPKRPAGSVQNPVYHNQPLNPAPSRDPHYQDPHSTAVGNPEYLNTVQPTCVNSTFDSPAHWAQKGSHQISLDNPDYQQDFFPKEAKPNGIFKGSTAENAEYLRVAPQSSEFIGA
Procedure: Cells were trypsinised, washed and lysed in RIPA buffer (50 mM Tris, 150 mM NaCl, 1% triton, 0.1% SDS, 1 mM EDTA, 0.1% sodium deoxycholate, protease inhibitor cocktail, sodium vanadate) for 10 min prior to 15 min sonication and centrifugation at 4° C. to remove cellular debris. Lysates were resolved by reducing SDS-PAGE and transferred to PVDF membranes using the iBlot dry transfer system (Invitrogen).

[12] = tested on: primary first trimester extravillous trophoblast cells; assay: CellTiter-Blue cell viability assay, primary first trimester extravillous trophoblast cells; format: cell-based; conditions: Homo sapiens, 100 μM methotrexate, initial dose-response experiments, read-out: decrease in cell viability
Source text: 1st trimester placenta was collected from healthy women undergoing elective termination of pregnancy (amenorrhea: 8-10 weeks). This research protocol, including written consent from patients, was approved by the Southern Health Human Research and Ethics Committee. From the 1st trimester placental tissue, primary cytotrophoblast was isolated as previously described (Cartwright J E et al., (2002) Placenta 23:232-235). The inventors confirmed the purity of primary cytotrophoblast cells by immunocytochemistry for cytokeratin 7 as previously described (Paiva P et al., (2007) Endocrinology 148:5566-5572).
as §4
as §5, with “Assay. […]” for “Assay.”
Importantly, the efficacy of methotrexate±gefitinib was also assessed in primary human extravillous trophoblast cells isolated from first trimester placenta.

Compound: COc1cc2ncnc(Nc3ccc(F)c(Cl)c3)c2cc1OCCCN1CCOCC1 [gefitinib, N-(3-chloro-4-fluorophenyl)-7-methoxy-6-(3-morpholinopropoxy)quinazolin-4-amine]
EGF induced p38-MAPK phosphorylation [1]: potently blocked
JEG3 cell death, single agent [2]: not
JEG3 cell death, single agent ([2]; listed as Gefitinib): little or no cell death
Akt phosphorylation [3]: potently blocked
decrease in JEG3 growth (xCELLigence) ([4]; gefitinib 8 μM): small and transient
decrease in JEG3 growth (xCELLigence) ([4]; gefitinib 2 or 4 μM): no
EGF induced ERK1/2 phosphorylation [5]: potently blocked
BeWo cell death, single agent [6]: little or no cell death
xenograft tumour volume at the doses chosen for combination [7]: some reduction
xenograft tumour volume, single agent at different doses [7]: potent dose dependent reductions; also recorded: regresses
EGF induced IKB-α phosphorylation [8]: potently blocked

Compound: CS(=O)(=O)CCNCc1ccc(-c2ccc3ncnc(Nc4ccc(OCc5cccc(F)c5)c(Cl)c4)c3c2)o1 [lapatinib]
effects on the developing embryo [9]: no ill effects on the developing embryo

EGF induced EGFR phosphorylation [11]: partially inhibited
Compound: CN(Cc1cnc2nc(N)nc(N)c2n1)c1ccc(C(=O)N[C@@H](CCC(=O)O)C(=O)O)cc1 [methotrexate]
M30 staining (caspase-cleaved cytokeratin 18, early apoptosis) [10]: increased expression
JEG3 cell death, single agent ([2]; listed as MTX): in a dose dependent manner
JEG3 cell death, single agent ([2]; listed as methotrexate (MTX)): kills JEG3 cells in a dose response manner
cytotoxicity at 100 µM ([2]; Homo sapiens, 100 μM methotrexate, JEG-3 cells, initial dose-response experiments, read-out: decrease in cell viability): ~50%
Akt phosphorylation [3]: significant increase
JEG3 cell growth (xCELLigence) ([4]; FIG. 6, combination: gefitinib doses added to a fixed dose of MTX): decreased JEG3 cell growth in a dose dependent manner
BeWo cell death, single agent [6]: in a dose dependent manner
cytotoxicity at 200 µM ([6]; Homo sapiens, 200 μM methotrexate, syncytialised BeWo cells, initial dose-response experiments, read-out: decrease in cell viability): ~50%
xenograft tumour volume at the doses chosen for combination [7]: some reduction
xenograft tumour volume, single agent at different doses ([7]; listed as MTX): decrease in xenograft tumour volume was observed with increasing doses
xenograft tumour volume, single agent at different doses ([7]; listed as Methotrexate (MTX)): regresses
cytotoxicity at 100 µM [12]: ~50%
